Consider 3 compounds from US20240293413A1, “COMPOUND AND METHOD FOR TREATING CHEMOTHERAPY-RELATED GASTROINTESTINAL SIDE EFFECTS” (ONQUALITY PHARMACEUTICALS CHINA LTD., priority 2021, published 2024).

This assay deals with constipation caused by a chemotherapeutic agent in Balb/c mice. As to the kind of experiment: Examples 406-443 (Table 8): various administration modes of the CDK inhibitor, relief of constipation caused by a chemotherapeutic agent.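 As to Relative remission rate of oral administration: percent of treated mice relieved versus chemotherapy group by feces reduction rate.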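 As to Relative remission rate of other administration mode: percent of treated mice relieved versus chemotherapy group by feces reduction rate.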 The assay is classed as in vivo. Particulars: for improvement of constipation by oral administration, intraperitoneal injection, intramuscular injection, local administration: constipation caused by doxorubicin, etoposide, etoposide plus cisplatin, carboplatin, gemcitabine, gemcitabine plus carboplatin, under certain conditions, oral most significant. From the text:
Balb/c mice were fed for 1 week, and then divided into groups. The experiment was divided into a control group, a chemotherapeutic agent group, CDK inhibitor groups (including an oral administration group of a CDK inhibitor, an intravenous injection group of a CDK inhibitor, an intraperitoneal injection group of a CDK inhibitor, an intramuscular injection group of a CDK inhibitor, a local administration group of a CDK inhibitor), each of which comprised 10 mice, to perform the administration experiment, for which the administration dosage, mode, time and frequency were shown in Table 8. The control group: being administered with the same solvent as that used in the CDK inhibitor group (the time and mode were shown in Table 8), and then being injected/intragastrically administered with the same solvent as that used in the chemotherapeutic agent group (the administration mode was shown in Table 8): the chemotherapeutic agent group: being administered with the same solvent as that used in the CDK inhibitor group (the time and mode were shown in Table 8), and then being injected/intragastrically administered with the chemotherapeutic agent (the type, administration mode and dosage were shown in Table 8): the oral administration group of the CDK inhibitor: being intragastrically administered with the CDK inhibitor (the time was shown in Table 8), and then being administered with the chemotherapeutic agent (the mode and dosage were shown in Table 8): the intravenous injection group of the CDK inhibitor: being injected with the CDK inhibitor through tail vein (the time was shown in Table 8), and then being administered with the chemotherapeutic agent (the mode and dosage were shown in Table 8): the intraperitoneal injection group of the CDK inhibitor: being intraperitoneally injected with the CDK inhibitor (the time was shown in Table 8), and then being administered with the chemotherapeutic agent (the mode and dosage were shown in Table 8): the intramuscular injection group of the CDK inhibitor: being intramuscularly injected with the CDK inhibitor (the time was shown in Table 8), and then being administered with the chemotherapeutic agent (the mode and dosage were shown in Table 8); and the local administration group of the CDK inhibitor: the hair on the abdomen of mice was shaved (about 2 cm*2 cm), being applied with the CDK inhibitor (the time was shown in Table 8), and then being administered with the chemotherapeutic agent (the mode and dosage were shown in Table 8).
Feces reduction rate (%)=(the control group−the chemotherapeutic agent group or the CDK inhibitor group)/the control group*100%
The feces amount of mice within 3 hours was observed and recorded every day.

For `CCN1CCN(Cc2ccc(Nc3ncc(F)c(-c4cc(F)c5nc(C)n(C(C)C)c5c4)n3)nc2)CC1` [Abemaciclib], the “Relative remission rate of other administration mode” value (Example 429, Carboplatin intravenous injection 120 mg/kg single, CDK inhibitor intramuscular injection 150 mg/kg single, 8 h before, cycle 10 days) was determined as 20%; the “Relative remission rate of other administration mode” value (Example 430, Gemcitabine intraperitoneal injection 120 mg/kg single, CDK inhibitor intraperitoneal injection 150 mg/kg single, 0.5 h before, cycle 8 days) was determined as 10%; the “Relative remission rate of other administration mode” value (Example 431, Gemcitabine intraperitoneal injection 120 mg/kg single, CDK inhibitor intraperitoneal injection 150 mg/kg single, 4 h before, cycle 8 days) is 10%; the “Relative remission rate of other administration mode” value (Example 432, Gemcitabine intraperitoneal injection 120 mg/kg single, CDK inhibitor intraperitoneal injection 150 mg/kg single, 8 h before, cycle 8 days) came out at 10%; the “Relative remission rate of other administration mode” value (Example 433, Gemcitabine intraperitoneal injection 120 mg/kg single, CDK inhibitor intraperitoneal injection 150 mg/kg single, 12 h before, cycle 8 days) amounted to 20%; the “Relative remission rate of other administration mode” value (Example 434, Gemcitabine intraperitoneal injection 120 mg/kg single, CDK inhibitor intraperitoneal injection 150 mg/kg single, 24 h before, cycle 8 days) stood at 20%. In addition, the “Relative remission rate of oral administration” value runs as follows: (Example 429, Carboplatin intravenous injection 120 mg/kg single, CDK inhibitor oral 150 mg/kg single, 8 h before, cycle 10 days) 60%; (Example 430, Gemcitabine intraperitoneal injection 120 mg/kg single, CDK inhibitor oral 150 mg/kg single, 0.5 h before, cycle 8 days) 40%; (Example 431, Gemcitabine intraperitoneal injection 120 mg/kg single, CDK inhibitor oral 150 mg/kg single, 4 h before, cycle 8 days) 40%; (Example 432, Gemcitabine intraperitoneal injection 120 mg/kg single, CDK inhibitor oral 150 mg/kg single, 8 h before, cycle 8 days) 40%; (Example 433, Gemcitabine intraperitoneal injection 120 mg/kg single, CDK inhibitor oral 150 mg/kg single, 12 h before, cycle 8 days) 60%; (Example 434, Gemcitabine intraperitoneal injection 120 mg/kg single, CDK inhibitor oral 150 mg/kg single, 24 h before, cycle 8 days) 60%.
`CN(C)C(=O)c1cc2cnc(Nc3ccc(N4CCNCC4)cn3)nc2n1C1CCCC1` [Ribociclib]: the “improvement of constipation by oral administration, intraperitoneal injection, intramuscular injection, local administration” value is on record as “can significantly improve constipation”. Moreover, the “Relative remission rate of other administration mode” value (Example 424, Carboplatin intraperitoneal injection 120 mg/kg single, CDK inhibitor intraperitoneal injection 200 mg/kg single, 0.5 h before, cycle 10 days) worked out at 10%. For the same compound, under “Example 424, Carboplatin intraperitoneal injection 120 mg/kg single, CDK inhibitor oral 200 mg/kg single, 0.5 h before, cycle 10 days”, the “Relative remission rate of oral administration” value was found to be 20%. In addition, the “Relative remission rate of other administration mode” value (Example 425, Carboplatin intraperitoneal injection 120 mg/kg single, CDK inhibitor intraperitoneal injection 200 mg/kg single, 4 h before, cycle 10 days) amounted to 10%. The “Relative remission rate of oral administration” value (Example 425, Carboplatin intraperitoneal injection 120 mg/kg single, CDK inhibitor oral 200 mg/kg single, 4 h before, cycle 10 days) worked out at 30%. For the same compound, the “Relative remission rate of other administration mode” value (Example 426, Carboplatin intraperitoneal injection 120 mg/kg single, CDK inhibitor intraperitoneal injection 200 mg/kg single, 8 h before, cycle 10 days) is listed as 20%. Besides, the “Relative remission rate of oral administration” value (Example 426, Carboplatin intraperitoneal injection 120 mg/kg single, CDK inhibitor oral 200 mg/kg single, 8 h before, cycle 10 days) is recorded as 50%. The “Relative remission rate of other administration mode” value (Example 427, Carboplatin intraperitoneal injection 120 mg/kg single, CDK inhibitor intraperitoneal injection 200 mg/kg single, 12 h before, cycle 10 days) amounted to 20%. In addition, under “Example 427, Carboplatin intraperitoneal injection 120 mg/kg single, CDK inhibitor oral 200 mg/kg single, 12 h before, cycle 10 days”, the “Relative remission rate of oral administration” value came to 50%. Where the note is “Example 428, Carboplatin intraperitoneal injection 120 mg/kg single, CDK inhibitor intraperitoneal injection 200 mg/kg single, 24 h before, cycle 10 days”, the “Relative remission rate of other administration mode” value was 10%. In addition, the “Relative remission rate of oral administration” value (Example 428, Carboplatin intraperitoneal injection 120 mg/kg single, CDK inhibitor oral 200 mg/kg single, 24 h before, cycle 10 days) came to 40%. Further, under “Example 435, Gemcitabine oral administration 300 mg/kg single, CDK inhibitor local administration 100 mg/kg single, 24 h before, cycle 8 days”, the “Relative remission rate of other administration mode” value is recorded as 20%. Under “Example 435, Gemcitabine oral administration 300 mg/kg single, CDK inhibitor oral 100 mg/kg single, 24 h before, cycle 8 days”, the “Relative remission rate of oral administration” value was 50%.
With `CN1CCN(c2ccc(Nc3ncc4cc5n(c4n3)C3(CCCCC3)CNC5=O)nc2)CC1` [Trilaciclib (G1T28), Trilaciclib], the “improvement of constipation by oral administration, intraperitoneal injection, intramuscular injection, local administration” value was “can significantly improve constipation”. Moreover, the “Relative remission rate of other administration mode” value (Example 411, Doxorubicin (Dox) intravenous injection 12 mg/kg single, CDK inhibitor intraperitoneal injection 100 mg/kg single, 24 h before, cycle 8 days) was found to be 10%. For the same compound, for the setting “Example 411, Doxorubicin (Dox) intravenous injection 12 mg/kg single, CDK inhibitor oral 100 mg/kg single, 24 h before, cycle 8 days”, the “Relative remission rate of oral administration” value was found to be 30%. The “Relative remission rate of other administration mode” value (Example 421, Etoposide and cisplatin intraperitoneal injection 50€ 5 mg/kg single, CDK inhibitor intravenous injection 100 mg/kg single, 24 h before, cycle 7 days) is recorded as 10%. Also, the “Relative remission rate of oral administration” value (Example 421, Etoposide and cisplatin intraperitoneal injection 50€ 5 mg/kg single, CDK inhibitor oral 150 mg/kg single, 24 h before, cycle 7 days) stood at 20%. Besides, the “Relative remission rate of other administration mode” value (Example 436, Gemcitabine intramuscular injection 120 mg/kg single, CDK inhibitor intramuscular injection 100 mg/kg single, 24 h before, cycle 8 days) is given as 10%. In addition, where the note is “Example 436, Gemcitabine intramuscular injection 120 mg/kg single, CDK inhibitor oral 100 mg/kg single, 24 h before, cycle 8 days”, the “Relative remission rate of oral administration” value is on record as 40%. Further, the “Relative remission rate of other administration mode” value (Example 438, Gemcitabine and Carboplatin intravenous injection 120 (G) 100 (C) mg/kg single, CDK inhibitor intraperitoneal injection 100 mg/kg single, 12 h before, cycle 8 days) worked out at 20%. Further, the “Relative remission rate of oral administration” value (Example 438, Gemcitabine and Carboplatin intravenous injection 120 (G) 100 (C) mg/kg single, CDK inhibitor oral 100 mg/kg single, 12 h before, cycle 8 days) worked out at 50%. Also, the “Relative remission rate of other administration mode” value (Example 439, Gemcitabine and Carboplatin intravenous injection 120 (G) 100 (C) mg/kg single, CDK inhibitor intraperitoneal injection 100 mg/kg single, 24 h before, cycle 8 days) was determined as 20%. Also, where the note is “Example 439, Gemcitabine and Carboplatin intravenous injection 120 (G) 100 (C) mg/kg single, CDK inhibitor oral 100 mg/kg single, 24 h before, cycle 8 days”, the “Relative remission rate of oral administration” value is on record as 50%.
